Data: patent publication US20070155764A1, “NOVEL SUBSTITUTED PYRIMIDINYLOXY UREAS USEFUL AS INHIBITORS OF PROTEIN KINASES” (KALYPSYS, INC., priority 2005, published 2007)

How the values were obtained:
Type in all cases: biochemical
[1] = target: T1, human B-Raf protein kinase (Homo sapiens, UniProt P15056); experiment: In vitro B-Raf/Mek1 composite kinase assay; conditions: recombinant GST-tagged human B-Raf (Δ1-415) with inactive Mek1, 2 μM ATP
T1 construct: GST (N); purchased Upstate Inc. 14-530 (B-Raf); 14-420 (Mek1)
How it was run: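 Luminescent ATP-depletion assay using recombinant N-terminal GST-tagged human B-Raf (Δ1-415, 1 ng/well) in MOPS pH 7.2 buffer with 10 mM MgCl2. Compounds were preincubated 15 min at about 22° C, then the reaction ran 2 h before PKLight readout. Efficacy is expressed as percentage of positive-control (Bay 43-9006) activity.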

[2] = target: T2, PDGFRβ kinase (Homo sapiens, UniProt P09619); experiment: In vitro PDGFRβ kinase assay; conditions: ADP Quest assay, poly Glu:Tyr substrate, 60 μM ATP
T2 construct: purchased Invitrogen Inc. P3082
How it was run: (§1)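 Compound was preincubated 10 min at ~22 °C with 20 ng VEGFR2 or 25 ng PDGFRβ, then poly Glu:Tyr (4:1) substrate (0.25 μg) with 60 μM ATP (in added buffer) was reacted 2 h at 30 °C. ADP Quest resorufin fluorescence was read (ex 530/em 580) after 30 min. Efficacy is expressed as percent of positive-control (Bay 43-9006) activity, with DMSO as negative control.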

[3] = target: T3, VEGFR2 kinase (Homo sapiens, UniProt P35968); experiment: In vitro VEGFR2 kinase assay; conditions: ADP Quest assay, poly Glu:Tyr substrate, 60 μM ATP
T3 construct: purchased Invitrogen Inc PV3660
How it was run: as §1

T3 sequence (P35968 20-1356): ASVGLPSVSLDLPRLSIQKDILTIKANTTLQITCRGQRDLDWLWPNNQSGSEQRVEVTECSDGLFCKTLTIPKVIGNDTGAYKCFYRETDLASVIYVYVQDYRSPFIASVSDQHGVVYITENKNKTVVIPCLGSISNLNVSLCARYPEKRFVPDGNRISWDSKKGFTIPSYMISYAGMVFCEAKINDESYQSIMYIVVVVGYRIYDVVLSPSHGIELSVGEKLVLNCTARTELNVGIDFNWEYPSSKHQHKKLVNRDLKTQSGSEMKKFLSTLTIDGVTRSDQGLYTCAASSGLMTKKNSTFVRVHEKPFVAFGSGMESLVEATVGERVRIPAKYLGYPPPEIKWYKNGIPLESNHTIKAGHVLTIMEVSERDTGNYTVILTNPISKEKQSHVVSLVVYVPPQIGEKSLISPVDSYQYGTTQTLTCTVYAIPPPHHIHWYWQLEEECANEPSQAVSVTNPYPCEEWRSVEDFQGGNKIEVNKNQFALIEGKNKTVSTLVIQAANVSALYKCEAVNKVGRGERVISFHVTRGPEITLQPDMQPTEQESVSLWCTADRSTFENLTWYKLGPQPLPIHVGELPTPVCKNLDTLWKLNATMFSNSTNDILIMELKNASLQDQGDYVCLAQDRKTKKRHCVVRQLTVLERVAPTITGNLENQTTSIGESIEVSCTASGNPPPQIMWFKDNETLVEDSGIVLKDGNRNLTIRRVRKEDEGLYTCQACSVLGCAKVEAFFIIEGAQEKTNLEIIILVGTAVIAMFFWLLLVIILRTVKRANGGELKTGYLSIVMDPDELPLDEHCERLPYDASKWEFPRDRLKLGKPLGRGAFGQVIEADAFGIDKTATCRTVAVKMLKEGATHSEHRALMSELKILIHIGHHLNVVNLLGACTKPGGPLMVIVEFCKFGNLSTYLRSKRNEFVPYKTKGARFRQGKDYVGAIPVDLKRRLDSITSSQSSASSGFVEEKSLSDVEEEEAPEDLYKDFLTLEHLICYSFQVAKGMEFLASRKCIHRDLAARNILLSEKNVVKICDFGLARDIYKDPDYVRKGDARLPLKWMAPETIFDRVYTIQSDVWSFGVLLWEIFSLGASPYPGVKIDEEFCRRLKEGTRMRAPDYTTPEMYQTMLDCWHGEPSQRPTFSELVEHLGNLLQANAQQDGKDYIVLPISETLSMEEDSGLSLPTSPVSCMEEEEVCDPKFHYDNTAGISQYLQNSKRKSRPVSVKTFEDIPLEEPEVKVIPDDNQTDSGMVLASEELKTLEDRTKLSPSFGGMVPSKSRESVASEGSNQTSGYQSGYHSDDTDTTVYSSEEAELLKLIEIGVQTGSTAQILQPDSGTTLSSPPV
T2 sequence (P09619 33-1106): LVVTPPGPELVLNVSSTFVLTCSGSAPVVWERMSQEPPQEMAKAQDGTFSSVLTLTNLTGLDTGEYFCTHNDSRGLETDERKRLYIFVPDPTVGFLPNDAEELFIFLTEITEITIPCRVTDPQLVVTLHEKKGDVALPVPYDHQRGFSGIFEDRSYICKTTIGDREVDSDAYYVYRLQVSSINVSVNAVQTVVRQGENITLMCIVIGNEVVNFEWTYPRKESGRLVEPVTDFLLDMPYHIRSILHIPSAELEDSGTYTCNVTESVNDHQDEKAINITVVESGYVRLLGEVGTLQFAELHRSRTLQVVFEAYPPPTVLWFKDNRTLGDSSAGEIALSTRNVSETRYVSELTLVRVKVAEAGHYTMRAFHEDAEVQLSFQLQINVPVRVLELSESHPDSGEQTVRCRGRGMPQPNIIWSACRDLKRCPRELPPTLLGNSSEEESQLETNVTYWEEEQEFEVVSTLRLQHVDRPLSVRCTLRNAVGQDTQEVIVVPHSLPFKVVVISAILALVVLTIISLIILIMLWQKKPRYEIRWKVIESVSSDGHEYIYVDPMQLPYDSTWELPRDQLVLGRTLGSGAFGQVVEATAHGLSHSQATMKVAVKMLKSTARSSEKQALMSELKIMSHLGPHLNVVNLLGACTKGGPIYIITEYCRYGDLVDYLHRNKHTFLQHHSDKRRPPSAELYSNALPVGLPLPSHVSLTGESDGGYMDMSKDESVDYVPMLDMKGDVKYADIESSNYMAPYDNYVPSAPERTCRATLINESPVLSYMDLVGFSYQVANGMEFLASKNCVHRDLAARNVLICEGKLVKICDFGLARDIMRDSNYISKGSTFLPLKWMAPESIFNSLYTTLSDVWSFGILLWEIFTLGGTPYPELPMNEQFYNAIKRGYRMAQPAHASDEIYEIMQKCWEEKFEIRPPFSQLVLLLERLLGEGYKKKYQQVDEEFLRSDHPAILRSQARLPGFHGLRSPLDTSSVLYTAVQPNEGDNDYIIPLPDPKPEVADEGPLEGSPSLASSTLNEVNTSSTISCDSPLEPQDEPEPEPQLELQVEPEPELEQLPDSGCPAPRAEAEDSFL
T1 sequence (P15056 416-766): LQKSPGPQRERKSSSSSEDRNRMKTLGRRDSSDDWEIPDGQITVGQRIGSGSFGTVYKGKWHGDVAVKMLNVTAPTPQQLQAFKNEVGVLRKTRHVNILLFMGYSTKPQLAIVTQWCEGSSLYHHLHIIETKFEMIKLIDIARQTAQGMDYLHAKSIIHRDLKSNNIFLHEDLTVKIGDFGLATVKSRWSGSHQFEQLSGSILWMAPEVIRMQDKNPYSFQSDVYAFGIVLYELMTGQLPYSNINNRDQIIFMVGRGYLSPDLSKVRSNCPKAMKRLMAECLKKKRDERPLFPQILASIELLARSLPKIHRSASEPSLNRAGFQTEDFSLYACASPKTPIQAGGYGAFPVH

Row | SMILES | IC50 [1] [µM] | IC50 [2] [µM] | IC50 [3] [µM]
1 | Cn1cc(-c2cc(Oc3cc(NC(=O)Nc4ccc(Cl)c(C(F)(F)F)c4)c(F)cc3F)ncn2)cn1 [Example 57, 1-(4-Chloro-3-(trifluoromethyl)phenyl)-3-(2,4-difluoro-5-(6-(1-methyl-1H-pyrazol-4-yl)pyrimidin-4-yloxy)phenyl)urea] | ≤ 10 | ≤ 10 | ≤ 10
2 | COC(=O)Cn1ccc(-c2cc(Oc3cccc(NC(=O)Nc4ccc(Cl)c(C(F)(F)F)c4)c3)ncn2)n1 [Example 58, Methyl 2-(3-(6-(3-(3-(4-chloro-3-(trifluoromethyl)phenyl)ureido)phenoxy)pyrimidin-4-yl)-1H-pyrazol-1-yl)acetate] | ≤ 10 | ≤ 10 | ≤ 10
3 | NC(=O)Cn1ccc(-c2cc(Oc3cccc(NC(=O)Nc4ccc(Cl)c(C(F)(F)F)c4)c3)ncn2)n1 [Example 59, 2-(3-(6-(3-(3-(4-Chloro-3-(trifluoromethyl)phenyl)ureido)phenoxy)pyrimidin-4-yl)-1H-pyrazol-1-yl)acetamide] | ≤ 10 | ≤ 10 | ≤ 10
4 | CNC(=O)Cn1ccc(-c2cc(Oc3cccc(NC(=O)Nc4ccc(Cl)c(C(F)(F)F)c4)c3)ncn2)n1 [Example 60, 2-(3-(6-(3-(3-(4-Chloro-3-(trifluoromethyl)phenyl)ureido)phenoxy)pyrimidin-4-yl)-1H-pyrazol-1-yl)-N-methylacetamide] | ≤ 10 | ≤ 10 | ≤ 10
5 | Cn1ccc(-c2cc(Oc3cccc(NC(=O)Nc4ccc(Cl)c(C(F)(F)F)c4)c3)ncn2)n1 [Example 61, 1-(4-Chloro-3-(trifluoromethyl)phenyl)-3-(3-(6-(1-methyl-1H-pyrazol-3-yl)pyrimidin-4-yloxy)phenyl)urea] | ≤ 10 | > 10 | > 10
6 | Cn1nccc1-c1cc(Oc2cccc(NC(=O)Nc3ccc(Cl)c(C(F)(F)F)c3)c2)ncn1 [Example 62, 1-(4-Chloro-3-(trifluoromethyl)phenyl)-3-(3-(6-(1-methyl-1H-pyrazol-5-yl)pyrimidin-4-yloxy)phenyl)urea] | ≤ 10 | ≤ 10 | ≤ 10
7 | O=C(Nc1cccc(Oc2cc(-c3ccn(CCO)n3)ncn2)c1)Nc1ccc(Cl)c(C(F)(F)F)c1 [Example 63, 1-(4-Chloro-3-(trifluoromethyl)phenyl)-3-(3-(6-(1-(2-hydroxyethyl)-1H-pyrazol-3-yl)pyrimidin-4-yloxy)phenyl)urea] | ≤ 10 | > 10 | > 10
8 | N#CCn1cc(-c2cc(Oc3cccc(NC(=O)Nc4ccc(Cl)c(C(F)(F)F)c4)c3)ncn2)cn1 [Example 64, 1-(4-Chloro-3-(trifluoromethyl)phenyl)-3-(3-(6-(1-(cyanomethyl)-1H-pyrazol-4-yl)pyrimidin-4-yloxy)phenyl)urea] | ≤ 10 | ≤ 10 | ≤ 10
9 | Cn1cc(-c2nccc(Oc3cc(NC(=O)Nc4ccc(Cl)c(C(F)(F)F)c4)c(F)cc3F)n2)cn1 [Example 67, 1-(4-Chloro-3-(trifluoromethyl)phenyl)-3-(2,4-difluoro-5-(2-(1-methyl-1H-pyrazol-4-yl)pyrimidin-4-yloxy)phenyl)urea] | ≤ 10 | ≤ 10 | ≤ 10
10 | CC(C)n1cc(-c2cc(Oc3cccc(NC(=O)Nc4ccc(Cl)c(C(F)(F)F)c4)c3)ncn2)cn1 [Example 68, 1-(4-Chloro-3-(trifluoromethyl)phenyl)-3-(3-(6-(1-isopropyl-1H-pyrazol-4-yl)pyrimidin-4-yloxy)phenyl)urea] | ≤ 10 | ≤ 10 | > 10
11 | Cc1nn(C)c(C)c1-c1cc(Oc2cccc(NC(=O)Nc3ccc(Cl)c(C(F)(F)F)c3)c2)ncn1 [Example 69, 1-(4-Chloro-3-(trifluoromethyl)phenyl)-3-(3-(6-(1,3,5-trimethyl-1H-pyrazol-4-yl)pyrimidin-4-yloxy)phenyl)urea] | ≤ 10 | > 10 | > 10
12 | Cc1nn(C)c(C)c1-c1cc(Oc2ccc(NC(=O)Nc3ccc(Cl)c(C(F)(F)F)c3)cc2)ncn1 [Example 70, 1-(4-Chloro-3-(trifluoromethyl)phenyl)-3-(4-(6-(1,3,5-trimethyl-1H-pyrazol-4-yl)pyrimidin-4-yloxy)phenyl)urea] | > 10 | ≤ 10 | > 10
13 | Cn1cc(-c2nccc(Oc3cccc(NC(=O)Nc4ccc(Cl)c(C(F)(F)F)c4)c3)n2)cn1 [Example 71, 1-(4-Chloro-3-(trifluoromethyl)phenyl)-3-(3-(2-(1-methyl-1H-pyrazol-4-yl)pyrimidin-4-yloxy)phenyl)urea] | ≤ 10 | ≤ 10 | ≤ 10
14 | Cn1cc(-c2nccc(Nc3ccc(NC(=O)Nc4ccc(Cl)c(C(F)(F)F)c4)cc3)n2)cn1 [Example 72, 1-(4-Chloro-3-trifluoromethyl-phenyl)-3-{4-[2-(1-methyl-1H-pyrazol-4-yl)-pyrimidin-4-ylamino]-phenyl}-urea] | ≤ 10 | ≤ 10 | ≤ 10
15 | O=C(Nc1ccc(Oc2cc(-c3nc(C(F)(F)F)c[nH]3)ncn2)cc1)Nc1ccc(Cl)c(C(F)(F)F)c1 [Example 73, 1-(4-Chloro-3-(trifluoromethyl)phenyl)-3-(4-(6-(4-(trifluoromethyl)-1H-imidazol-2-yl)pyrimidin-4-yloxy)phenyl)urea] | ≤ 10 | ≤ 10 | > 10
16 | O=C(Nc1cccc(Oc2cc(-c3nc(C(F)(F)F)c[nH]3)ncn2)c1)Nc1ccc(Cl)c(C(F)(F)F)c1 [Example 74, 1-(4-Chloro-3-(trifluoromethyl)phenyl)-3-(3-(6-(4-(trifluoromethyl)-1H-imidazol-2-yl)pyrimidin-4-yloxy)phenyl)urea] | ≤ 10 | ≤ 10 | > 10
17 | COCCOc1ccc(NC(=O)Nc2cc(Oc3ccnc(-c4cnn(C)c4)n3)c(F)cc2F)cc1C(F)(F)F [Example 75, 1-(2,4-Difluoro-5-(2-(1-methyl-1H-pyrazol-4-yl)pyrimidin-4-yloxy)phenyl)-3-(4-(2-methoxyethoxy)-3-(trifluoromethyl)phenyl)urea] | ≤ 10 | ≤ 10 | ≤ 10
18 | O=C(Nc1ccc(Oc2cc(-c3cnn(CCN4CCOCC4)c3)ncn2)cc1)Nc1ccc(Cl)c(C(F)(F)F)c1 [Example 76, 1-(4-Chloro-3-(trifluoromethyl)phenyl)-3-(4-(6-(1-(2-morpholinoethyl)-1H-pyrazol-4-yl)pyrimidin-4-yloxy)phenyl)urea] | ≤ 10 | ≤ 10 | ≤ 10
19 | O=C(Nc1cccc(Oc2cc(-c3cnn(CCN4CCOCC4)c3)ncn2)c1)Nc1ccc(Cl)c(C(F)(F)F)c1 [Example 77, 1-(4-Chloro-3-(trifluoromethyl)phenyl)-3-(3-(6-(1-(2-morpholinoethyl)-1H-pyrazol-4-yl)pyrimidin-4-yloxy)phenyl)urea] | ≤ 10 | ≤ 10 | ≤ 10
20 | Cn1cc(-c2nccc(Oc3ccc(F)c(NC(=O)Nc4ccc(Cl)c(C(F)(F)F)c4)c3)n2)cn1 [Example 78, 1-(4-Chloro-3-(trifluoromethyl)phenyl)-3-(2-fluoro-5-(2-(1-methyl-1H-pyrazol-4-yl)pyrimidin-4-yloxy)phenyl)urea] | ≤ 10 | ≤ 10 | ≤ 10
